# From patent US12534469B2 (CHILDREN'S HOSPITAL MEDICAL CENTER, priority 2020, dated 2026)
# Experiments:
# Type in all cases: biochemical
# [1] = biological target: T1, IRAK1 (Homo sapiens, UniProt P51617); test: RBC HotSpot Kinase Assay, IRAK1
# T1 construct: purchased Reaction Biology (RBC HotSpot Kinase Assay)
# Excerpt: (§1) This assay uses the isolated kinase enzyme. This assay is very useful for determining competition of the inhibitor for ATP and/or substrates and for measuring the kinetics of enzyme inhibition. […] Unlike kinase binding assays that measure competition for ATP, the HotSpot Kinase Assay is a functional assay that measures catalytic activity; as such it measures relative functional potency regardless of the mechanism of enzyme inhibition. This assay uses the form of the various enzymes that are easiest to express, which may not necessarily be the form of the enzyme that exist in the cell. (Sometimes the carboxy terminus has been truncated to aid in expression, or, if it is a receptor kinase, the enzyme itself is isolated from the other parts of the receptor that are involved in regulating kinase activity.)
# (§2) The reagent used was as follows: Base Reaction buffer; 20 mM Hepes (pH 7.5), 10 mM MgCl2, 1 mM EGTA, 0.01% Brij35, 0.02 mg/ml BSA, 0.1 mM Na3VO4, 2 mM DTT, 1% DMSO. Required cofactors were added individually to each kinase reaction.
# (§3) The reaction procedure was as follows: • 1) Substrates were prepared in freshly prepared Reaction Buffer. • 2) Any required cofactors were delivered to the substrate solution above. • 3) Kinase was delivered into the substrate solution and gently mixed. • 4) Compounds were delivered in 100% DMSO into the kinase reaction mixture by Acoustic technology (Echo550; nanoliter range), followed by incubation for 20 min at room temp. • 5) ^33P-ATP was delivered into the reaction mixture to initiate the reaction. • 6) The mixture was incubated for 2 hours at room temperature. • 7) Kinase activity was detected by P81 filter-binding method.
# [2] = biological target: T2, FLT3 (Homo sapiens, UniProt P36888); test: RBC HotSpot Kinase Assay, FLT3
# T2 construct: purchased Reaction Biology (RBC HotSpot Kinase Assay)
# T2 sequence (P36888 564-958 limits assumed): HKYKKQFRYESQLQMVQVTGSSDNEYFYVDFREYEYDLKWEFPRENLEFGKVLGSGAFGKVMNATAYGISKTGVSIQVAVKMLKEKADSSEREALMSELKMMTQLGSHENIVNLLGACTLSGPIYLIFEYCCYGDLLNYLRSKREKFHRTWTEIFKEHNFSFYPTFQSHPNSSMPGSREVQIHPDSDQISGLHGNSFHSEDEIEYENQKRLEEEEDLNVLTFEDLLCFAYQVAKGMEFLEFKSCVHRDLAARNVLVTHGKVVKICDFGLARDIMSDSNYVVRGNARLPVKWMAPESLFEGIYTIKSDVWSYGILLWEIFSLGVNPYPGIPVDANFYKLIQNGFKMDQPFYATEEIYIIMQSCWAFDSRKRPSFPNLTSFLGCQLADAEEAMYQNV
# Excerpt: as §1, §2, §3
# [3] = biological target: T3, IRAK4 (Homo sapiens, UniProt Q9NWZ3); test: RBC HotSpot Kinase Assay, IRAK4; parameters: purchased Reaction Biology (RBC HotSpot Kinase Assay)
# T3 sequence (Q9NWZ3 1-460): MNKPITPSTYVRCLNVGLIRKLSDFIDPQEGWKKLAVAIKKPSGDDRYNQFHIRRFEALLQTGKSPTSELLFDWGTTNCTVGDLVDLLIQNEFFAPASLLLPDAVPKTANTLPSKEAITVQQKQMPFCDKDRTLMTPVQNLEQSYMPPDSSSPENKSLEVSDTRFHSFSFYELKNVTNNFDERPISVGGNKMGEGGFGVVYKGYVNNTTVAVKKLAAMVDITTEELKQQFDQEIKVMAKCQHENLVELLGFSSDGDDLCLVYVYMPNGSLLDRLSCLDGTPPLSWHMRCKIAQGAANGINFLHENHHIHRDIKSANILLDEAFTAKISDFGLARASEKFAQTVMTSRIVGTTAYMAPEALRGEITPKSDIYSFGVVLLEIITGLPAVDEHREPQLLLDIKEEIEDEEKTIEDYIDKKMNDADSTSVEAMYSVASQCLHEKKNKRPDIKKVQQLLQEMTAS
# Excerpt: as §1, §2, §3
# T1 sequence (P51617 whole entry): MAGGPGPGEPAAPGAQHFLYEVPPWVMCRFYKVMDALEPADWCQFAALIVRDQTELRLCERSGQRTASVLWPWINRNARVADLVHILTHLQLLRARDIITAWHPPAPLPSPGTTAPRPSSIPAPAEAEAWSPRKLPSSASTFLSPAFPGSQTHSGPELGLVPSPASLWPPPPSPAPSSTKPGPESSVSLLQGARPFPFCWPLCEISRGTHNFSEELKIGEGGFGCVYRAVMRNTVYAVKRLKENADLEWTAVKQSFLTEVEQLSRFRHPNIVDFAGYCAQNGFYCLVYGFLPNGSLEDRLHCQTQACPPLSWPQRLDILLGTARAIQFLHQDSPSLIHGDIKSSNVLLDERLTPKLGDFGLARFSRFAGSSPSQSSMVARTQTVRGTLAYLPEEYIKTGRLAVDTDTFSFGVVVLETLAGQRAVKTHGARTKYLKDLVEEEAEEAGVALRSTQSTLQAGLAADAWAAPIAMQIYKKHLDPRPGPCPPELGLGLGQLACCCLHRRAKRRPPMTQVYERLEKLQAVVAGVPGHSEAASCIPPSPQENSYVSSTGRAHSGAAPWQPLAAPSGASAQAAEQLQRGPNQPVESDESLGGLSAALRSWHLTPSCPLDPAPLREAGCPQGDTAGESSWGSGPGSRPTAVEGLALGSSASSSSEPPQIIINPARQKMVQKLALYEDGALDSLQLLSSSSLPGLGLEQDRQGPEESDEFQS
SMILES,IC50 [1] [nM],IC50 [2] [nM],IC50 [3] [nM]
"c1cc(NC2CC3(CCNC3)C2)nc(-c2cnc3ccc(-c4cnn(C5CCOCC5)c4)nn23)c1 (stereo not drawn) [Compound 41, N-(6-(6-(1-(tetrahydro-2H-pyran-4-yl)-1H-pyrazol-4-yl)imidazo[1,2-b]pyridazin-3-yl)pyridin-2-yl)-6-azaspiro[3.4]octan-2-amine]",> 10000,18,3480
"CC(C)(C)c1ccc2ncc(-c3cccc(N[C@H]4CNC[C@@H]4F)n3)n2n1 [Compound 80, 6-(6-(tert-butyl)imidazo[1,2-b]pyridazin-3-yl)-N-((3S,4S)-4-fluoropyrrolidin-3-yl)pyridin-2-amine]",3420,11,231
"CC(C)(O)Cn1cc(-c2ccc3ncc(-c4cccc(N[C@@H]5CCCNC5)n4)n3n2)cn1 [Compound 18, (R)-2-methyl-1-(4-(3-(6-(piperidin-3-ylamino)pyridin-2-yl)imidazo[1,2-b]pyridazin-6-yl)-1 H-pyrazol-1-yl)propan-2-ol]",2440,4,1410
"F[C@H]1CNC[C@@H]1Nc1cccc(-c2cnc3ccc(C(F)(F)F)nn23)n1 [Compound 79, N-((3S,4S)-4-fluoropyrrolidin-3-yl)-6-(6-(trifluoromethyl)imidazo[1,2-b]pyridazin-3-yl)pyridin-2-amine]",4570,3,21
"c1cc(NC2CC3(CNC3)C2)nc(-c2cnc3ccc(-c4cnn(C5CNC5)c4)nn23)c1 [Compound 37, N-(6-(6-(1-(azetidin-3-yl)-1H-pyrazol-4-yl)imidazo[1,2-b]pyridazin-3-yl)pyridin-2-yl)-2-azaspiro[3.3]heptan-6-amine]",> 10000,7,4320
"F[C@H]1CNC[C@@H]1Nc1cccc(-c2cnc3ccc(Oc4ccccc4)nn23)n1 [Compound 88, N-((3S,4S)-4-fluoropyrrolidin-3-yl)-6-(6-phenoxyimidazo[1,2-b]pyridazin-3-yl)pyridin-2-amine]",7240,22,959
"CC(C)n1cc(-c2ccc3ncc(-c4cccc(NC5CC6(CCNC6)C5)n4)n3n2)cn1 (stereo not drawn) [Compound 39, N-(6-(6-(1-isopropyl-1H-pyrazol-4-yl)imidazo[1,2-b]pyridazin-3-yl)pyridin-2-yl)-6-azaspiro[3.4]octan-2-amine]",2330,8,321
"c1ccc(-n2cc(-c3ccc4ncc(-c5cccc(NC6CC7(CNC7)C6)n5)n4n3)cn2)cc1 [Compound 33, N-(6-(6-(1-phenyl-1H-pyrazol-4-yl)imidazo[1,2-b]pyridazin-3-yl)pyridin-2-yl)-2-azaspiro[3.3]heptan-6-amine]",> 10000,16,3360
"O[C@H]1CNC[C@@H]1Nc1cccc(-c2cnc3ccc(C4CC4)nn23)n1 [Compound 70, (3S,4S)-4-((6-(6-cyclopropylimidazo[1,2-b]pyridazin-3-yl)pyridin-2-yl)amino)pyrrolidin-3-ol]",5190,18,586
"FC(F)(F)[C@H]1CNC[C@@H]1Nc1cccc(-c2cnc3ccc(-c4cnn(C5CC5)c4)nn23)n1 [Compound 13, 6-(6-(1-cyclopropyl-1 H-pyrazol-4-yl)imidazo[1,2-b]pyridazin-3-yl)-N-((3R,4S)-4-(trifluoromethyl)pyrrolidin-3-yl)pyridin-2-amine]",1840,2,106

# Now those with a lower IC50 [1], led by results:
IC50 [1] [nM],IC50 [2] [nM],IC50 [3] [nM],SMILES
948,2,115,"FC(F)n1cc(-c2ccc3ncc(-c4cccc(N[C@H]5CNC[C@@H]5F)n4)n3n2)cn1 [Compound 2, 6-(6-(1-(difluoromethyl)-1 H-pyrazol-4-yl)imidazo[1,2-b]pyridazin-3-yl)-N-((3S,4S)-4-fluoropyrrolidin-3-yl)pyridin-2-amine]"
375,< 0.5,2,"COc1cc2ncc(-c3cccc(N[C@H]4CNC[C@@H]4C)n3)n2nc1C1CC1 [Compound 98, 6-(6-cyclopropyl-7-methoxyimidazo[1,2-b]pyridazin-3-yl)-N-((3R,4S)-4-methylpyrrolidin-3-yl)pyridin-2-amine]"
403,< 0.5,16,"c1cc(NC2CC3(CCNC3)C2)nc(-c2cnc3ccc(-c4cnn5ccccc45)nn23)c1 (stereo not drawn) [Compound 62, N-(6-(6-(pyrazolo[1,5-a]pyridin-3-yl)imidazo[1,2-b]pyridazin-3-yl)pyridin-2-yl)-6-azaspiro[3.4]octan-2-amine]"
296,4,62,"FC(F)n1cc(-c2ccc3ncc(-c4cccc(N[C@H]5CCNC[C@@H]5F)n4)n3n2)cn1 [Compound 6, 6-(6-(1-(difluoromethyl)-1 H-pyrazol-4-yl)imidazo[1,2-b]pyridazin-3-yl)-N-((3S,4S)-3-fluoropiperidin-4-yl)pyridin-2-amine]"
80,0.8,1,"FC1(F)CNCC1Nc1cccc(-c2cnc3ccc(-c4cnn5ccccc45)nn23)n1 (stereo not drawn) [Compound 56, N-(4,4-difluoropyrrolidin-3-yl)-6-(6-(pyrazolo[1,5-a]pyridin-3-yl)imidazo[1,2-b]pyridazin-3-yl)pyridin-2-amine]"
1060,8,2670,"Cc1oncc1-c1ccc2ncc(-c3cccc(NC4CCC5(CNC5)C4)n3)n2n1 (stereo not drawn) [Compound 50, N-(6-(6-(5-methylisoxazol-4-yl)imidazo[1,2-b]pyridazin-3-yl)pyridin-2-yl)-2-azaspiro[3.4]octan-6-amine]"
269,< 0.5,28,"c1cc(NC2CCC3(CNC3)C2)nc(-c2cnc3ccc(-c4cnn5ccccc45)nn23)c1 (stereo not drawn) [Compound 63, N-(6-(6-(pyrazolo[1,5-a]pyridin-3-yl)imidazo[1,2-b]pyridazin-3-yl)pyridin-2-yl)-2-azaspiro[3.4]octan-6-amine]"
49,0.5,6,"c1cc(NC2CC3(CNC3)C2)nc(-c2cnc3ccc(-c4cn[nH]c4)nn23)c1 [Compound 31, N-(6-(6-(1H-pyrazol-4-yl)imidazo[1,2-b]pyridazin-3-yl)pyridin-2-yl)-2-azaspiro[3.3]heptan-6-amine]"
1650,3,83,"COc1ccc2ncc(-c3cccc(N[C@H]4CNC[C@@H]4F)n3)n2n1 [Compound 87, N-((3S,4S)-4-fluoropyrrolidin-3-yl)-6-(6-methoxyimidazo[1,2-b]pyridazin-3-yl)pyridin-2-amine]"
1640,78,1080,"F[C@H]1CNC[C@@H]1Nc1cccc(-c2cnc3ccc(NC4CCCCC4)nn23)n1 [Compound 92, N-cyclohexyl-3-(6-(((3S,4S)-4-fluoropyrrolidin-3-yl)amino)pyridin-2-yl)imidazo[1,2-b]pyridazin-6-amine]"
349,1,26,"c1cc(NC2CC3(CNC3)C2)nc(-c2cnc3ccc(-c4cnn5ccccc45)nn23)c1 [Compound 61, N-(6-(6-(pyrazolo[1,5-a]pyridin-3-yl)imidazo[1,2-b]pyridazin-3-yl)pyridin-2-yl)-2-azaspiro[3.3]heptan-6-amine]"
